From patent US11452686B2, “Cosmetic active substance obtained through bioconversion by Lactobacillus arizonensis of its original substrate, method for obtaining same composition comprising same, and uses” (SOCIETE INDUSTRIELLE LIMOUSINE D'APPLICATION BIOLOGIQUE, priority 2019, dated 2022)

Key:
Type in all cases: cell-based
filaggrin = assay: Filaggrin synthesis by immunostaining on normal human keratinocytes subjected to a dry environment
Protocol: Thus, the use of an active substance according to the invention makes it possible to restore the epidermal differentiation process in order to obtain a cohesive structure. The second study on the keratinocytes makes it possible to compare the effect of the products of the various examples 1 to 5. To do this, their capacity to restore the synthesis of filaggrin by human keratinocytes subjected to a dry environment is compared. This study was carried out by immunocytology on normal human keratinocytes subjected to a dry environment. The procedure is as follows:
Normal human keratinocytes are seeded and incubated at 37° C. in an atmosphere containing 5% CO2 for several days.
Then, the keratinocytes are either incubated at 37° C. under 5% CO2 in an environment of 40% relative humidity in order to mimic a dry environment, or they are kept in an environment that is saturated with humidity (82% relative humidity) in the presence or absence of the products of examples 1 to 5 or in the presence of a sodium lactate solution at 45 g/L (pH 5.4).
After 24 h, immunostaining is performed using an anti-filaggrin primary antibody and a coupled secondary antibody, Alexa Flor® 488.
The nuclei are stained with a DAPI solution.
Viewing is performed using an IX 70 microscope (Olympus) coupled to an image analysis system (NIS-Elements software, Nikon).
The synthesized filaggrin is proportional to the intensity of green fluorescence present on the keratinocytes. A quantitative analysis of the images was performed using Matlab® software. The results are expressed in arbitrary units (AU) in Table 6 (Effect of the various examples on their ability to restore the synthesis of filaggrin in human keratinocytes subjected to water stress).

Collagen I = Collagen I mRNA expression by quantitative PCR on normal human fibroblasts; conditions: 10 ng/mL (positive control)
Protocol: (§1) This study was carried out by PCR on normal human fibroblasts.
(§2) I. Culturing and Treatment of Fibroblasts: • Normal human fibroblasts are inoculated into a culture medium and then incubated at 37° C. in an atmosphere containing 5% CO2. • Then, the fibroblasts are cultured in the presence or absence of the active substance of example 1 at 0.5% and 1% (V/V).
(§3) TGF-β at 10 ng/mL is used as a positive control. Finally, the fibroblasts are recovered and the total RNAs extracted.
(§4) The RNAs were reverse-transcribed, and the complementary DNAs obtained were analyzed by the quantitative PCR technique. The mRNAs of the RPS18 protein, internal reference control, were analyzed in parallel with the mRNAs of Coll I, Coll III, Coll IV, Coll VII and HAS-2.
(§5) The quantification of the incorporation of fluorescence (SYBR Green) is measured continuously using a thermal cycler. The RQ (relative quantification) analysis is performed using software.

Collagen III = Collagen III mRNA expression by quantitative PCR on normal human fibroblasts; conditions: 10 ng/mL (positive control)
Protocol: as §1, §2, §3, §4, §5

Collagen IV = Collagen IV mRNA expression by quantitative PCR on normal human fibroblasts; conditions: 10 ng/mL (positive control)
Protocol: as §1, §2, §3, §4, §5

Collagen VII = Collagen VII mRNA expression by quantitative PCR on normal human fibroblasts; conditions: 10 ng/mL (positive control)
Protocol: as §1, §2, §3, §4, §5

[1] = system: HAS-2 (hyaluronan synthase 2); assay: HAS-2 mRNA expression by quantitative PCR on normal human fibroblasts; conditions: 10 ng/mL (positive control)
Protocol: as §1, §2, §3, §4, §5

Molecule | Restoration of filaggrin synthesis (in words) (filaggrin; human keratinocytes subjected to water stress) | Synthesis of filaggrin (filaggrin; keratinocytes, water stress (40% relative humidity), 24 h, product at 0.5%) | Ability to restore filaggrin synthesis (filaggrin; keratinocytes, water stress, product at 0.5%) | Collagen I Efficacy/control (Collagen I) | Collagen I Expression (Collagen I) | Collagen III Efficacy/control (Collagen III) | Collagen III Expression (Collagen III) | Collagen IV Efficacy/control (Collagen IV) | Collagen IV Expression (Collagen IV) | Collagen VII Efficacy/control (Collagen VII) | Collagen VII Expression (Collagen VII) | HAS-2 Expression [1]
CC(O)C(=O)[O-].[Na+] (stereo not drawn) [Sodium lactate] | does not restore filaggrin synthesis | 909 AU | 7% |  |  |  |  |  |  |  |  | 
TGF-β |  |  |  | +126% | 226% | +39% | 139% | +218% | 318% | +234% | 334% | 78%
